Biological target: RIP2 recombinant protein (Homo sapiens, UniProt O43353)
Test: Radiometric protein kinase assay (33PanQinase Activity Assay) for RIP2, peptide-based
Type: biochemical
Details: 1 h; compound at 0.1 μM
Procedure: The inhibition of RIP2 kinase was assessed using RIP2 recombinant protein in an in vitro peptide-based kinase assay.
A radiometric protein kinase assay (^33PanQinase® Activity Assay) is used for measuring the kinase activity. All assays are performed in 96-well FlashPlates™ from Perkin Elmer in a 50 μl reaction volume. The reaction cocktail is pipetted in 4 steps in the following order: • 10 μl of non-radioactive ATP solution (in H2O) • 25 μl of assay buffer/[γ-^33P]-ATP mixture • 5 μl of test sample in 10% DMSO • 10 μl of enzyme/substrate mixture
The assay for RIP2 contains 70 mM HEPES-NaOH pH 7.5, 3 mM MgCl2, 3 mM MnCl2, 3 μM Na-orthovanadate, 1.2 mM DTT, 50 μg/mI PEG20000, ATP (3.0 μM), [γ-^33P]-ATP (approx. 5×10^05 cpm per well), protein kinase RIP2 (15.7 nM) and substrate (RBER-Chktide), 2.0 μg/50 μl).
The reaction cocktails were incubated at 30° C. for 60 minutes. The reaction was stopped with 50 μl of 2% (v/v) H3PO4, plates were aspirated and washed two times with 200 μl 0.9% (w/v) NaCl. Incorporation of ^33Pi (counting of “cpm”) was determined with a microplate scintillation counter.
The compounds are dissolved to 10 mM in DMSO. Where needed, solutions are sonicated in a bath sonicator.
Table 4 provides the pIC50 values and % Remaining activity values at two concentrations (1 μM and 0.1 μM) of the compounds according to the invention, obtained using the above mentioned kinase assay.

RIP2 recombinant protein, sequence (O43353 whole entry): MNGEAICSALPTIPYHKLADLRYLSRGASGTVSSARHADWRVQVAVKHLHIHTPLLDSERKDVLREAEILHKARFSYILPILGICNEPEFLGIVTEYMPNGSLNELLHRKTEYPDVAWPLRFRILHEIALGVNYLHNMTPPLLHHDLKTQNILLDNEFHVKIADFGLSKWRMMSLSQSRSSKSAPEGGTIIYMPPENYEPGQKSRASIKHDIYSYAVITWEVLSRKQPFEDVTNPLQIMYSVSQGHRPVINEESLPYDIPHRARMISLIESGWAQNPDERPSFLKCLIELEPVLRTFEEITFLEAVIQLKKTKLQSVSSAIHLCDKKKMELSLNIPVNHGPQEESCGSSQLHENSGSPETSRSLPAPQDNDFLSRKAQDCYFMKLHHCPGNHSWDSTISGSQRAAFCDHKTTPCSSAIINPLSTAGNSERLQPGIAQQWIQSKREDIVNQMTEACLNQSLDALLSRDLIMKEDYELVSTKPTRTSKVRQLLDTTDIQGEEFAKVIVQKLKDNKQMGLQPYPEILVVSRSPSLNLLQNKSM

remaining activity at 0.1 µM	SMILES
< 50%	c1cc2cc(c1)-c1cnn3ccc(nc13)NCC1CCCN1CCO2 (stereo not drawn) [Compound O1]
< 50%	Clc1cc2cc(c1)-c1cnn3ccc(nc13)NC[C@H]1CCCN1CCCO2 [Compound O3]
< 50%	Clc1cc2cc(c1)-c1cnn3ccc(nc13)NC[C@@H]1CCCN1CCO2 [Compound O4]
< 50%	Fc1cc2cc(c1)-c1cnn3ccc(nc13)NC[C@@H]1CCCN1CCO2 [Compound O5]
< 50%	Fc1cc2cc(c1)-c1cnn3ccc(nc13)NC[C@H]1CCCN1CCCO2 [Compound O6]
< 50%	Fc1cc2cc(c1)-c1cnn3ccc(nc13)NCC[C@H]1CCCN1CCO2 [Compound O7]
< 50%	c1cc2cc(c1)-c1cnn3ccc(nc13)NC[C@@H]1CCCN1CCO2 [Compound O8]
< 50%	Clc1cc2cc(c1)-c1cnn3ccc(nc13)NC[C@@H]1CCCN1CCCO2 [Compound O9]
< 50%	CN1C[C@@H]2CCCN2CCOc2cccc(c2)-c2cnn3ccc1nc23 [Compound O10]
< 50%	Fc1cc2cc(c1)-c1cnn3ccc(nc13)NC[C@@H]1CCCN1CCCO2 [Compound O11]
< 50%	Fc1c(Cl)cc2cc1OCCN1CCC[C@H]1CNc1ccn3ncc-2c3n1 [Compound O12]
< 50%	Fc1cc2cc(c1)-c1cnn3ccc(nc13)NCC1CCCCN1CCO2 (stereo not drawn) [Compound O13]

Same assay, conditions: 1 h; compound at 1 μM

remaining activity at 1 µM	SMILES
< 50%	c1cc2cc(c1)-c1cnn3ccc(nc13)NCC1CCCN1CCO2 (stereo not drawn) [Compound O1]
< 50%	Clc1cc2cc(c1)-c1cnn3ccc(nc13)NC[C@H]1CCCN1CCCO2 [Compound O3]
< 50%	Clc1cc2cc(c1)-c1cnn3ccc(nc13)NC[C@@H]1CCCN1CCO2 [Compound O4]
< 50%	Fc1cc2cc(c1)-c1cnn3ccc(nc13)NC[C@@H]1CCCN1CCO2 [Compound O5]
< 50%	Fc1cc2cc(c1)-c1cnn3ccc(nc13)NC[C@H]1CCCN1CCCO2 [Compound O6]
< 50%	Fc1cc2cc(c1)-c1cnn3ccc(nc13)NCC[C@H]1CCCN1CCO2 [Compound O7]
< 50%	c1cc2cc(c1)-c1cnn3ccc(nc13)NC[C@@H]1CCCN1CCO2 [Compound O8]
< 50%	Clc1cc2cc(c1)-c1cnn3ccc(nc13)NC[C@@H]1CCCN1CCCO2 [Compound O9]
< 50%	CN1C[C@@H]2CCCN2CCOc2cccc(c2)-c2cnn3ccc1nc23 [Compound O10]
< 50%	Fc1cc2cc(c1)-c1cnn3ccc(nc13)NC[C@@H]1CCCN1CCCO2 [Compound O11]
< 50%	Fc1c(Cl)cc2cc1OCCN1CCC[C@H]1CNc1ccn3ncc-2c3n1 [Compound O12]
< 50%	Fc1cc2cc(c1)-c1cnn3ccc(nc13)NCC1CCCCN1CCO2 (stereo not drawn) [Compound O13]

Same assay, conditions: ATP 3.0 μM, RIP2 15.7 nM, 30° C., 60 minutes

IC50	SMILES
< 0.1 µM	c1cc2cc(c1)-c1cnn3ccc(nc13)NCC1CCCN1CCO2 (stereo not drawn) [Compound O1]
< 0.1 µM	CN1CC2CCCN2CCOc2cccc(c2)-c2cnn3ccc1nc23 (stereo not drawn) [Compound O2]
< 0.1 µM	Clc1cc2cc(c1)-c1cnn3ccc(nc13)NC[C@H]1CCCN1CCCO2 [Compound O3]
< 0.1 µM	Clc1cc2cc(c1)-c1cnn3ccc(nc13)NC[C@@H]1CCCN1CCO2 [Compound O4]
< 0.1 µM	Fc1cc2cc(c1)-c1cnn3ccc(nc13)NC[C@@H]1CCCN1CCO2 [Compound O5]
< 0.1 µM	Fc1cc2cc(c1)-c1cnn3ccc(nc13)NC[C@H]1CCCN1CCCO2 [Compound O6]
< 0.1 µM	Fc1cc2cc(c1)-c1cnn3ccc(nc13)NCC[C@H]1CCCN1CCO2 [Compound O7]
< 0.1 µM	c1cc2cc(c1)-c1cnn3ccc(nc13)NC[C@@H]1CCCN1CCO2 [Compound O8]
< 0.1 µM	Clc1cc2cc(c1)-c1cnn3ccc(nc13)NC[C@@H]1CCCN1CCCO2 [Compound O9]
< 0.1 µM	CN1C[C@@H]2CCCN2CCOc2cccc(c2)-c2cnn3ccc1nc23 [Compound O10]
< 0.1 µM	Fc1cc2cc(c1)-c1cnn3ccc(nc13)NC[C@@H]1CCCN1CCCO2 [Compound O11]
< 0.1 µM	Fc1c(Cl)cc2cc1OCCN1CCC[C@H]1CNc1ccn3ncc-2c3n1 [Compound O12]
< 0.1 µM	Fc1cc2cc(c1)-c1cnn3ccc(nc13)NCC1CCCCN1CCO2 (stereo not drawn) [Compound O13]
< 0.1 µM	Fc1cc2cc(c1)-c1cnn3ccc(nc13)NCC1CCCCN1CCCO2 (stereo not drawn) [Compound O14]

System: not given
Test: not given
Details: not given

melting point	SMILES
> 300 °C	c1cc2cc(c1)-c1cnn3ccc(nc13)NCC1CCCN1CCO2 (stereo not drawn) [Compound O1]
91.2 °C	CN1CC2CCCN2CCOc2cccc(c2)-c2cnn3ccc1nc23 (stereo not drawn) [Compound O2]
186.4 °C	Clc1cc2cc(c1)-c1cnn3ccc(nc13)NC[C@H]1CCCN1CCCO2 [Compound O3]
> 300 °C	Clc1cc2cc(c1)-c1cnn3ccc(nc13)NC[C@@H]1CCCN1CCO2 [Compound O4]
241 °C	Fc1cc2cc(c1)-c1cnn3ccc(nc13)NC[C@@H]1CCCN1CCO2 [Compound O5]
> 300 °C	Fc1cc2cc(c1)-c1cnn3ccc(nc13)NC[C@H]1CCCN1CCCO2 [Compound O6]
> 300 °C	Fc1cc2cc(c1)-c1cnn3ccc(nc13)NCC[C@H]1CCCN1CCO2 [Compound O7]
> 300 °C	c1cc2cc(c1)-c1cnn3ccc(nc13)NC[C@@H]1CCCN1CCO2 [Compound O8]
> 300 °C	Clc1cc2cc(c1)-c1cnn3ccc(nc13)NC[C@@H]1CCCN1CCCO2 [Compound O9]
198.5 °C	CN1C[C@@H]2CCCN2CCOc2cccc(c2)-c2cnn3ccc1nc23 [Compound O10]

Biological target: T1, RIP2 (Mus musculus, UniProt P58801)
T1 construct: host or cells: mouse (in vivo colitis models)
T1 sequence (P58801 whole entry): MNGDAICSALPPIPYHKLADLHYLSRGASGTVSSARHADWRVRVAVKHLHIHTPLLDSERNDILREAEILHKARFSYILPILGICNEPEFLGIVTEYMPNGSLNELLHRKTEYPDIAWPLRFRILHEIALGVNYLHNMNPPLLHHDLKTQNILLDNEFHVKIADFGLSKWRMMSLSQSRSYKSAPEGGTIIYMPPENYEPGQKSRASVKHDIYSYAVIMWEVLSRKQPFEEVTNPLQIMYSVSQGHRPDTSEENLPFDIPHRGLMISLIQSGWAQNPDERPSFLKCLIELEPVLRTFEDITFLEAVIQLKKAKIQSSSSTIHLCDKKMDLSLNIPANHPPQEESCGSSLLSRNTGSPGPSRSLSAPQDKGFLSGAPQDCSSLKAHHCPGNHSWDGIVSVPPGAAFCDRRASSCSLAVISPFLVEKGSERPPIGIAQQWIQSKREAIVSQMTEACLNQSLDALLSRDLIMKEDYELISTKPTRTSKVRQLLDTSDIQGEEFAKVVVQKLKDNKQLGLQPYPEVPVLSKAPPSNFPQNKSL
Test: not given
Details: mouse models of chronic inflammatory bowel diseases; J Biol Chem. (2005) 15, 14981-14988; cited from earlier work

SMILES	effect on induced colitis
C[S+]([O-])c1ccc(-c2nc(-c3ccncc3)c(-c3ccc(F)cc3)[nH]2)cc1 (stereo not drawn) [SB203580]	efficacious to reduce induced-colitis

System: not given
Test: not given
Details: several clinical cases; The Oncologist (2013) 18: e3-e5; cited from earlier work

SMILES	clinical effect on psoriasis, arthritic symptoms or insulin-resistant type 2 diabetes
C#Cc1cccc(Nc2ncnc3cc(OCCOC)c(OCCOC)cc23)c1 [Erlotinib]	efficient to clear psoriasis or reduce arthritic symptoms or insulin-resistant type 2 diabetes
COc1cc2ncnc(Nc3ccc(F)c(Cl)c3)c2cc1OCCCN1CCOCC1 [Gefitinib]	efficient to clear psoriasis or reduce arthritic symptoms or insulin-resistant type 2 diabetes

Source: US10676486B2, “Macrocyclic RIP2 kinase inhibitors” (ONCODESIGN S.A., priority 2014, dated 2020)
